Experimental data published in ChEMBL document CHEMBL4406898, “Dual mode of binding of anti cancer drug epirubicin to G-quadruplex [d-(TTAGGGT)]4 containing human telomeric DNA sequence induces thermal stabilization” (Bioorg Med Chem, 2019).

Experiments:
[1] = tested on: Tetrahymena thermophila; test: Binding affinity to Tetrahymena thermophila telomeric 7 G-quadruplex DNA assessed as binding constant Kb1 in presence of 10 mM KCl by fluorescence spectroscopy
[2] = tested on: Tetrahymena thermophila; test: Binding affinity to Tetrahymena thermophila telomeric 7 G-quadruplex DNA assessed as binding constant Kb2 in presence of 10 mM KCl by fluorescence spectroscopy

## COc1cccc2c1C(=O)c1c(O)c3c(c(O)c1C2=O)C[C@@](O)(C(C)=O)C[C@@H]3O[C@H]1C[C@H](N)[C@H](O)[C@H](C)O1
[1]
  Kb: 6.3 ×10⁵ /M
[2]
  Kb: 1.3 ×10⁵ /M
